# “Also recorded” adds a separate entry of the source. Read-outs that look alike come from different tables or passages of the source. Square brackets hold non-standard residues; d marks the D form. Peptide text beside a SMILES is read from it. Sar = CNCC(=O)O
# What was measured:
# PepT1 [1] = molecular target: T1, PepT1 (Mus musculus, UniProt Q9JIP7); settings: 25 mM inhibitor co-perfused with 10 μM cefadroxil, pH 6.5, wild-type mice
# T1 sequence (Q9JIP7 1-709): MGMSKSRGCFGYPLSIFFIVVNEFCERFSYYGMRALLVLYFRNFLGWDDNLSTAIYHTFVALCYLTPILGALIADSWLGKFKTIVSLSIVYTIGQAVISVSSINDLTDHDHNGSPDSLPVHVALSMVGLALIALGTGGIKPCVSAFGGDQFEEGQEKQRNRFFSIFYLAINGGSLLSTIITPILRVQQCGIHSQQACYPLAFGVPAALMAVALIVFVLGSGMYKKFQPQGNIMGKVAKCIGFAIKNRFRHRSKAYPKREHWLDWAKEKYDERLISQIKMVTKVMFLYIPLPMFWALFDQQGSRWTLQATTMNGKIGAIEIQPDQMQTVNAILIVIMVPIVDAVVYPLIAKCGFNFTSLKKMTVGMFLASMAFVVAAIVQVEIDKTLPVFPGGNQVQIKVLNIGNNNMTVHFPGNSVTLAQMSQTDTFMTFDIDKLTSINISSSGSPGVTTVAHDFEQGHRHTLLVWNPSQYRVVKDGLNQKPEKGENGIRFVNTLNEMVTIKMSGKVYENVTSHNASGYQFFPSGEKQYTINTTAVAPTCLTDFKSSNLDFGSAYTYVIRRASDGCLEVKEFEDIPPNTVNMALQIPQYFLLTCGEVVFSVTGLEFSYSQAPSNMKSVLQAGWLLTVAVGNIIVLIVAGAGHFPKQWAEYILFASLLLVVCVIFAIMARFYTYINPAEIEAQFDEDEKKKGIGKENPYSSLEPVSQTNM
# PepT1 [2] = settings: cited from earlier work
# [3] = after oral dipeptide administration; cited from earlier work
# PepT1 [4] = molecular target: T1, PepT1; assay: Co-perfusion of cefadroxil with dimethyl-amiloride; settings: 0.1 mM DMA co-perfused with 10 μM cefadroxil, pH 6.5, wild-type mice
# PepT1 [5] = molecular target: T1, PepT1; format: in vivo, mice; settings: wild-type mice, 10 μM cefadroxil, pH 6.5
# PepT1 [6] = format: in vivo, mice; settings: for Peff: 10 μM cefadroxil, pH 6.5
# PepT1 [7] = molecular target: T1, PepT1; assay: pH-dependent jejunal permeability of cefadroxil, in situ perfusion; format: in vivo; settings: 10 μM cefadroxil, jejunum, wild-type mice, pH 5.5 to 7.5
# [8] = mouse, in vivo, po
# [9] = cited from earlier work
# [10] = cited from earlier work; remark: listed apart in the source
# PepT1 [11] = settings: PepT1 cRNA-injected Xenopus oocytes; cited from earlier work
# Caco-2 cells = settings: cited from earlier work
# [12] = in situ perfusions in proximal small intestine, cited from earlier work
# PepT1 [13] = molecular target: T1, PepT1; settings: jejunum, wild-type mice, pH 6.5
structure (smiles),measurement,setting,value
"NCC(=O)N1CCC[C@H]1C(=O)O [GlyPro, glycylproline] (H-Gly-Pro-OH)",effect on jejunal effective permeability of cefadroxil,PepT1 [1],significantly decreased
CC(=O)OCC1=C(C(=O)O)N2C(=O)[C@@H](NC(=O)Cc3cccs3)[C@H]2SC1 [cephalothin],effect on jejunal effective permeability of cefadroxil,PepT1 [1],not affected; also recorded: no significant effect; also recorded: lack of effect
CC[N+](CC)(CC)CC [TEA],effect on jejunal effective permeability of cefadroxil,PepT1 [1],lack of effect
"NCC(=O)O [Gly, glycine]",effect on jejunal effective permeability of cefadroxil,PepT1 [1],no significant effect
"N[C@@H](Cc1c[nH]cn1)C(=O)O [L-His, L-histidine]",effect on jejunal effective permeability of cefadroxil,PepT1 [1],no significant effect
"CN(CC(=O)O)C(=O)CN [GlySar, glycylsarcosine] (H-Gly-[Sar]-OH)",increase of permeability,"PepT1 [2]; pH 5.5, in situ perfusion, mice",36%
same,reduction (systemic exposure) in PepT1 knockout vs. wild-type mice,[3],~2 fold
same,effect on jejunal effective permeability of cefadroxil,PepT1 [1],significantly decreased
"CN(C)c1nc(N)c(C(=O)NC(=N)N)nc1Cl [DMA, 5-(N,N-dimethyl)amiloride]",effect on PepT1-mediated jejunal permeability/uptake of cefadroxil,PepT1 [4],inhibited
same,reduction of cefadroxil permeability,PepT1 [4],about 60%
"CNC(=O)c1cccnc1 [NMN, N-methylnicotinamide]",effect on jejunal effective permeability of cefadroxil,PepT1 [1],no significant effect
CC1=C(C(=O)O)N2C(=O)[C@@H](NC(=O)[C@H](N)c3ccc(O)cc3)[C@H]2SC1 [cefadroxil],Peff,PepT1 [5]; duodenum,490 nm/s
same,Peff,PepT1 [5]; ileum,880 nm/s
same,Peff,PepT1 [5]; jejunum,800 nm/s
same,Peff,"PepT1 [6]; PepT1 knockout mice, colon",32 nm/s
same,Peff,"PepT1 [6]; PepT1 knockout mice, ileum",42 nm/s
same,Peff,"PepT1 [6]; PepT1 knockout mice, jejunum",90 nm/s
same,difference between genotypes in the permeability in colon,"PepT1 [6]; colon, wild-type vs PepT1 knockout",no significant difference
same,permeability in PepT1 knockout mice as compared to wild-type mice,PepT1 [6]; duodenum,4%
same,permeability in PepT1 knockout mice as compared to wild-type mice,PepT1 [6]; ileum,5%
same,permeability in PepT1 knockout mice as compared to wild-type mice,PepT1 [6]; jejunum,12%
same,Peff,"PepT1 [6]; wild-type mice, colon",64 nm/s
same,effect of perfusate pH on effective permeability,PepT1 [7],no significant differences; also recorded: not significantly affected
same,"Tmax increase, PepT1 knockout vs wild-type",[8],~4 fold
same,half-life,[9],~ 95 min
same,binding to plasma proteins,[10],about 20%
same,Michaelis constant,PepT1 [11],1.1 mM
same,decrease of uptake,Caco-2 cells; further reducing the pH to 5.5,50%
same,increase of drug uptake,Caco-2 cells; shifting the pH from 7.4 to 6.0,about 4 fold
same,effect on jejunal permeability of GlySar,"PepT1 [2]; co-perfusion of cefadroxil at saturating concentrations, wild-type mice",significantly reduced
same,Michaelis constant,[12]; ref 12,5.9 mM
same,Michaelis constant,[12]; ref 13,6.6 mM
same,K′m (apparent),PepT1 [13]; based on bulk fluid (inlet) concentrations,3.8 ± 1.2 mM
same,Vmax (intrinsic),PepT1 [13]; referenced to membrane surface concentration Cw,4.5 ± 0.3 nmol/cm^2/sec

# From article PMC3596500 (Pharmaceutical research, 2012)
